The numbers were not newly measured in paper PMC12005229, “Final results from the phase Ia/Ib study of the novel bromodomain and extra-terminal domain inhibitor, BI 894999, in patients with advanced solid tumors or diffuse large B-cell lymphoma” (ESMO Open, 2025), which cites them from elsewhere.

Data set [1] has as its system patients with relapsed/refractory acute myeloid leukemia. On the set-up: method as in PMID 33934351. The following applies: 44 patients with relapsed/refractory acute myeloid leukemia; cited from earlier work.
Data set [2] has as its system patients with relapsed/refractory DLBCL. On the set-up: method as in PMID 34581757. The following applies: in combination with venetoclax and rituximab, 39 patients with relapsed/refractory DLBCL; cited from earlier work.

The structures appear in SMILES notation.

Turning to `CCS(=O)(=O)Nc1ccc(Oc2ccc(F)cc2F)c(-c2cn(C)c(=O)c3[nH]ccc23)c1` [mivebresib], the “efficacy of combination with venetoclax compared with monotherapy” value in data set [1] is “higher efficacy in the combination group”.

Regarding `Cc1sc2c(c1C)C(c1ccc(Cl)cc1)=N[C@@H](CC(=O)NCCCN1CCN(C)CC1)c1nnc(C)n1-2` [RO6870810], in data set [2], the complete responses is given as 20.5% and the overall response rate is 38.5%.
